The record followed here is patent publication US20230333109A1, “COMPOSITION FOR DIAGNOSING INFECTIOUS DISEASES COMPRISING AGENT FOR MEASURING EXPRESSION LEVEL OF SREBP2” (KOREA RESEARCH INSTITUTE OF BIOSCIENCE AND BIOTECHNOLOGY, priority 2020, published 2023).

The assay has as its system HUVECs. In words: Vascular barrier destruction in HUVECs under LPS stimulation (FIG. 4G). In kind it is cell-based.

Take `CCN(CC)Cc1ccc(C(=O)N(CCc2ccccc2OC)[C@@H]2CCNC2)cc1` [PF-429242]: the vascular barrier destruction entry is “inhibited vascular bather destruction”.
